Source: patent publication US4908314A (priority 1987, dated 1990)

Columns and labels:
[1] = target: protein C activator of the present invention (Agkistrodon contortrix contortrix, UniProt P09872); test: biochemical; type: biochemical
[2] = system: protein C activator of the present invention; test: biochemical; type: biochemical, Agkistrodon contortrix contortrix
Protac® = conditions: cited from earlier work
[3] = system: protein C activator of Klein et al; conditions: cited from earlier work
Factor VIIIa = target: T1, Factor VIIIa (Homo sapiens, UniProt P00451); test: Inactivation of Factor VIIIa in vitro; type: biochemical; conditions: picomolar concentrations
T1 sequence (P00451 20-391 limits assumed): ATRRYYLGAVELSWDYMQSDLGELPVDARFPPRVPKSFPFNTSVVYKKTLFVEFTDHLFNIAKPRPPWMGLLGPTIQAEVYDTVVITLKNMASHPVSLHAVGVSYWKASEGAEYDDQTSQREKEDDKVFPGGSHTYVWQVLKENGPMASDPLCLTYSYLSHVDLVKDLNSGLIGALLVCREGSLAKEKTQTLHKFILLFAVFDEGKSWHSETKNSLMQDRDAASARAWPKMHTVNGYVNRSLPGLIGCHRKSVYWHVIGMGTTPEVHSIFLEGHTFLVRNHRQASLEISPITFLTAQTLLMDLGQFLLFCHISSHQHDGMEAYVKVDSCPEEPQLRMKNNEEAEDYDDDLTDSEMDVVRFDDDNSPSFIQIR
T1 sequence (P00451 392-759 limits assumed): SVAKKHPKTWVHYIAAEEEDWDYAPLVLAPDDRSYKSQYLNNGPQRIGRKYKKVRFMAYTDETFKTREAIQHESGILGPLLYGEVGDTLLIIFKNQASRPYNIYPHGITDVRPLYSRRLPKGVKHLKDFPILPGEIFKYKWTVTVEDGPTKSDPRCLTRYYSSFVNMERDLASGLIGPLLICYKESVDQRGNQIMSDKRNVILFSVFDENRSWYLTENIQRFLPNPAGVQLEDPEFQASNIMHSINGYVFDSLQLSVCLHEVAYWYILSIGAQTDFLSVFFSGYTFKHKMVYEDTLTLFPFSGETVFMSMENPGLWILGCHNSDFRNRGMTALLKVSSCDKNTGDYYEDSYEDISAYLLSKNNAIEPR
T1 sequence (P00451 1709-2351 limits assumed): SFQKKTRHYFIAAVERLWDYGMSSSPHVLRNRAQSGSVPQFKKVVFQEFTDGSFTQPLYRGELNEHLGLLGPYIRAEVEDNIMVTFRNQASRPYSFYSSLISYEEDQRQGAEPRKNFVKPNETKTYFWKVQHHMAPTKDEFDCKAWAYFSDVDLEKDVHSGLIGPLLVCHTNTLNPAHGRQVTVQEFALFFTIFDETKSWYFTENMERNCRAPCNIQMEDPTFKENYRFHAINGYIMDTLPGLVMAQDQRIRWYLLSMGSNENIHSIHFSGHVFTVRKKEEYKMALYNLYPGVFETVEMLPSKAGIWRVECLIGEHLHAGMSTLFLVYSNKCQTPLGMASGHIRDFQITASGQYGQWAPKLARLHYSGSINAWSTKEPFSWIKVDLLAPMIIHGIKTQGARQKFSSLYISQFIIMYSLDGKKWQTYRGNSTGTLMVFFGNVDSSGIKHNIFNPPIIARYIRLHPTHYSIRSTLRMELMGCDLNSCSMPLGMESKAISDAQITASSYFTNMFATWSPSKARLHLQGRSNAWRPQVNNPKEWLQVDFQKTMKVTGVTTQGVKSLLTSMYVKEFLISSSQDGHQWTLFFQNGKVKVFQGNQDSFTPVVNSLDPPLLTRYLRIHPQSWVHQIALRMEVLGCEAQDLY

[4] = system: plasminogen activator inhibitor (PAI); test: Neutralization of plasminogen activator inhibitor activity in vitro; type: biochemical
[5] = Amidolysis of chromogenic substrates; type: biochemical

protein C activator of the present invention (Agkistrodon contortrix contortrix, UniProt P09872), sequence (P09872 whole entry, looked up): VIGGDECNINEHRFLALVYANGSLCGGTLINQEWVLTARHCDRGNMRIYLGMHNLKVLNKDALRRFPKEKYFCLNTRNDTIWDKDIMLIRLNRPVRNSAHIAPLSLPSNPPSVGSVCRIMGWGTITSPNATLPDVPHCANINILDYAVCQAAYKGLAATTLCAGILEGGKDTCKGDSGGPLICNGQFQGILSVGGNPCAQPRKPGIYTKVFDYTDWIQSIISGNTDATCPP

NC(N)=NCCC[C@H](NC(=O)[C@@H]1CCCN1C(=O)[C@H](N)Cc1ccccc1)C(=O)CCl [D-Phe-Pro-Arg-chloromethylketone]
Inhibition of activity of the activator by serine protease inhibitors [1]: inhibited
Ki [1]: 34 µM
fold higher Ki than the Ki of thrombin inhibition [2]: approximately 500 fold

NC(=O)CI [iodoacetamide]
Inhibition of activity of Protac (Protac®): not inhibited

N=C(N)Nc1ccc(C(=O)Oc2ccc([N+](=O)[O-])cc2)cc1 [p-nitrophenyl, p-guanidinobenzoate]
Inhibition of activity of the activator by serine protease inhibitors [1]: inhibited

O=S(=O)(F)Cc1ccccc1 [phenylmethylsulphonylfluoride]
Inhibition of activity of the activator by serine protease inhibitors [1]: inhibited

Antithrombin III
Inhibition of activity of the Klein et al activator [3]: no effect

activated protein C
inactivation of Factor VIIIa (Factor VIIIa): rapid inactivation
neutralization of PAI activity [4]: neutralization
activity of amidolysis of chromogenic substrates compared with thrombin-activated protein C [5]: approximately the same activity

B1: soybean trypsin inhibitor: serine protease inhibitor protein (protein, UniProt P01070 25-205, looked up)
Trypsin inhibitor A: DFVLDNEGNPLENGGTYYILSDITAFGGIRAAPTGNERCPLTVVQSRNELDKGIGTIISSPYRIRFIAEGHPLSLKFDSFAVIMLCVGIPTEWSVVEDLPEGPAVKIGENKDAMDGWFRLERVSDDEFNNYKLVFCPQQAEDDKCGDIGISIDHDDGTRRLVVSKNKPLVVQFQKLDKESL
Inhibition of activity of the activator by serine protease inhibitors [1]: inhibited
Inhibition of activity of the Klein et al activator [3]: inhibited
